Assay results as given in ChEMBL document CHEMBL3227969, “Synthesis and biological activity of 8-oxadihydropteridines” (J Med Chem, 1979).

Assays:
Dihydrofolate reductase = molecular target: T1, Dihydrofolate reductase (Homo sapiens, UniProt P00374); assay: Inhibition of dihydrofolate reductase (unknown origin) using dihydrofolic acid as substrate by spectrophotometry
T1 sequence (P00374 whole entry): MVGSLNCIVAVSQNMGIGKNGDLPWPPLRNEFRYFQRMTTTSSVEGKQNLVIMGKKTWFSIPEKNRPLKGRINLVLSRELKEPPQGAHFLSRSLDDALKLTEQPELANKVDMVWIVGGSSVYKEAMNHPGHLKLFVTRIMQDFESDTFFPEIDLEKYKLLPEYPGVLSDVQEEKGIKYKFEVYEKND

Enterococcus faecalis [1] = assay: Antibacterial activity against Streptococcus faecalis ATCC 8043; type: organism-based
Enterococcus faecalis [2] = assay: Antibacterial activity against Streptococcus faecalis ATCC 8043 at 1 ug/ml; type: organism-based

In the case of `CC1=Nc2c(O)nc(N)nc2OC1C` (configuration not stated), the IC50 (Dihydrofolate reductase) is reported as 377 µM and the Activity (Enterococcus faecalis [1]) is reported as “Toxic”.
In the case of `Nc1nc(O)c2c(n1)OC(c1ccccc1)C(c1ccccc1)=N2` (configuration not stated), the Activity (Enterococcus faecalis [1]) is reported as “Toxic”.
In the case of `CC1Oc2nc(N)nc(O)c2N=C1c1ccccc1` (configuration not stated), the Activity (Enterococcus faecalis [1]) is reported as “Toxic”.
`CC1=Nc2c(O)nc(N)nc2OC1c1ccccc1` (configuration not stated) was tested, and the IC50 (Dihydrofolate reductase) was 740 µM and the Activity (Enterococcus faecalis [1]) was “Toxic”.
`Nc1nc(O)c2c(n1)OCC(c1ccccc1)=N2` was tested, and the IC50 (Dihydrofolate reductase) was 57 µM and the Activity (Enterococcus faecalis [1]) was “Toxic”.
`CC1=Nc2c(O)nc(N)nc2OC1` was tested, and the IC50 (Dihydrofolate reductase) was 242 µM and the Activity (Enterococcus faecalis [1]) was “Toxic”.
`Nc1nc(O)c2c(n1)OCC(Cc1ccccc1)=N2` was tested, and the Activity (Enterococcus faecalis [1]) was “Toxic”.
In the case of `Nc1nc(O)c2c(n1)OCC(CCc1ccccc1)=N2`, the Activity (Enterococcus faecalis [1]) is reported as “Toxic”.
For `Nc1nc(O)c2c(n1)OCC(CCCc1ccccc1)=N2`, the Activity (Enterococcus faecalis [1]) was “Toxic”.
For `Nc1nc(O)c2c(n1)OCC(CCCCc1ccccc1)=N2`, the Activity (Enterococcus faecalis [1]) was “Toxic”.
For `CCCCCC1=Nc2c(O)nc(N)nc2OC1`, the IC50 (Dihydrofolate reductase) was 11 µM and the Activity (Enterococcus faecalis [1]) was “Toxic”.
`CC1=Nc2c(N)nc(N)nc2OC1C` (configuration not stated) was tested, and the IC50 (Dihydrofolate reductase) was 903 µM and the Activity (Enterococcus faecalis [1]) was “Toxic”.
In the case of `Nc1nc(N)c2c(n1)OC(c1ccccc1)C(c1ccccc1)=N2` (configuration not stated), the Activity (Enterococcus faecalis [1]) is reported as “Toxic”.
In the case of `Nc1nc(N)c2c(n1)OCC(c1ccccc1)=N2`, the IC50 (Dihydrofolate reductase) is reported as 168 µM and the Activity (Enterococcus faecalis [1]) is reported as “Toxic”.
With `CN(Cc1cnc2nc(N)nc(N)c2n1)c1ccc(C(=O)N[C@@H](CCC(=O)O)C(=O)O)cc1` [METHOTREXATE] the Activity (Enterococcus faecalis [2]) was “Toxic”.
